Consider twelve molecules from patent publication US12703693B2, “Crystalline forms of N-{3-[(1S)-1-{[6-(3,4-dimethoxyphenyl)pyrazin-2-yl]amino}ethyl]phenyl}-5-methylpyridine-3-carboxamide and related products and methods” (GB002, INC., priority 2021, dated 2026).

Data set [1] can be described thus: Particle size distribution (PSD) of micronized / spray dried material. The class given is physicochemical. The conditions noted are these: for Dv10 (μm) 1 / Dv50 (μm) 1 / Dv90 (μm) 1 / SPAN1 / Dv10 (μm) 2 / Dv50 (μm) 2 / Dv90 (μm) 2 / SPAN 2: wet polished (wet milled + spray dried) Compound 1 Form A; for Dv10 (μm) 1 / Dv50 (μm) 1 / Dv90 (μm) 1 / SPAN1: PSD set 1; for Dv10 (μm) 2 / Dv50 (μm) 2 / Dv90 (μm) 2 / SPAN 2: PSD set 2. From the text: Crystalline Compound 1 Form A was fed into a grinding chamber tangentially by vacuum created by the venturi system using pressurized nitrogen (venturi pressure, Pvent, above grind pressure, Pgrind). Compressed nitrogen was also used for the jet nozzles in the walls of the chamber. The feed flow rate was set and controlled automatically (by a gravimetric feeder) or manually. Once inside the milling chamber particles were accelerated by a series of perimeter jets, in a spiral movement. The compressed fluid issuing from the nozzles expands from Pgrind and imparts very high rotational speeds in the chamber. The micronizing effect occurs when the slower incoming particles and the faster particles in the spiral path collide. While centrifugal force retains the larger particles at the periphery of the milling chamber, the smaller particles exit with the exhaust gas from the center of the chamber. Five 20 g trials were performed in a 1.5″ jet mill, under varying feed rates (Ffeed,JM,) and pressures; the optimal conditions were used for a sixth larger scale 50 g trial.
Aqueous suspensions of crystalline Compound 1 Form A in water (5% w/w or 10% w/w) were processed via microfluidization with a HPH18 (M-110EH-30 Microfluidics Pilot) wet milling apparatus equipped with an auxiliary processing module (200 μm) and an interaction chamber (Z-shape, 100 μm). The unit was initiated at a given pressure for the first five cycles to perform a pre-milling of the suspension, using only the auxiliary processing module (200 μm). The interaction chamber (100 μm) was then introduced and the suspension processed at a defined pressure. The temperature was controlled, using a reactor jacket, and recorded. To address clogging of the micronization chambers (observed after ~25 cycles), the pressure was increased from 25 to 60 bar.
The material isolated from the first run 1A, was dived into three (1BI, 1BII and 1BIII); runs 2A and 3A were spray dried to produce samples 2B and 3B, respectively. […] Runs 2B and 3B were additionally characterized for specific surface area (SSA). See Table 27 (runs 1BI, 1BII and 1BIII) and Table 28 (runs 2B and 3B) for conditions and product characterization. […]
Two 250 g batches of crystalline Compound 1 Form A were each suspended in water (5 L) and wet polished in a wet milling HPH18 (M-110EH-30 Microfluidics Pilot) apparatus, equipped with an auxiliary processing module (200 μm) and an interaction chamber (Z-shape, 100 μm). The unit was initiated at 50 bar for the first five cycles to perform a pre-milling of the suspension, using only the auxiliary processing module (200 μm). The interaction chamber (100 μm) was then introduced and the suspension processed at 50 bar (increased to 60 or 70 bar if the system clogged). The temperature was maintained at 18-28° C. using a reactor jacket. The Reactor agitation speed was 280 RPM (batch 1) and 390 RPM (batch 2). The first batch was micronized for 25 cycles and particle size distribution analyzed after 5, 15 and 20 cycles; the second batch was micronized for […] and particle size distribution analyzed after 15, 20, 25 and 35 cycles.
Both batches were then spray dried (separately) using a Büchi spray dryer, using an open loop system. The unit was equipped with a two-fluid nozzle: cap and orifice diameters of 1.5 and 0.7 mm, respectively operated with nitrogen. The aspirator, blowing nitrogen, was set at 100% capacity (~40 kg/h). The suspension feed flow was set to 8 ml/min, high and the drying outlet temperature to 75±1° C. […] Total yield (both batches combined) was 267 g (53%).
Two 250 g batches (250 g and 238 g; 488 g total) of crystalline Compound 1 Form A coated with ~2% L-leucine were each suspended in water (5 L) and wet polished in a wet milling HPH18 (M-110EH-30 Microfluidics Pilot) apparatus, under the same process as described in the previous example. The first batch was micronized for 25 cycles and the second for 30 cycles. […]

The nature of data set [2]: Product characterization of micronized / spray dried powder (XRPD, amorphous content, water content by KF, assay and related substances, SSA). The format is physicochemical. The conditions noted are these: for KF: water content. From the text:
The final spray dried product was characterized for assay and related substances, PSD, water content by KF and XRPD and the results shown in Table 43. The two sub-batches were blended to obtain the final product, with a total final yield was 137 g (68%), see Table 44.

Experiment in data set [3]: as above
The format is physicochemical.

The nature of data set [4]: Solubility in ethyl acetate and ethyl acetate+2% water (Crystal16 parallel crystallizer). The class given is physicochemical. Here is the method:
The solubility of crystalline Forms A and B of Compound 1 in ethyl acetate was determined using a Crystal16® parallel crystallizer. Two heating rates were used, 1° C./min and 0.5° C./min. The suspensions were heated to 78° C. and cooled to 10° C. at 0.2° C./min and maintained for 2 h at 10° C. […] The suspensions were heated to 78° C. at 1° C./min, cooled to 10° C. at 0.2° C./min and maintained for 2 h at 10° C. FIG. 15 compares the resulting solubility curve with the pure ethyl acetate.

Data set [5] can be described thus: Solubility in ethanol/water mixtures. The conditions noted are these: 22 °C, aqueous with cosolvent or surfactant or cyclodextrin, thermodynamic from solid.
Description: Phosphate Buffer contained NaH2PO4·H2O (0.345 g), sodium hydroxide aqueous solution (0.2M, 10.001 mL), sodium chloride (0.576 g) and water (qs ad 100.0 mL); • Ethanol/Water (30/70) contained Ethanol (30.0 g) and Water (70.0 g); • Ethanol/Water (40/60) contained Ethanol (40.0 g) and Water (60.0 g); • Ethanol/Water (50/50) contained Ethanol (50.0 g) and Water (50.0 g); and • Ethanol/Water (45/55) contained Ethanol (4.50 g) and Water (5.51 g).
The mark [6] stands for this setting: Compound 1 alone after wet milling, BATCH 01: 20 cycles/P = 50 bar, BATCH 02: 35 cycles/P = 70 bar.
Where [7] appears, read: Compound 1 alone, spray dried, individual batch analyses, cyclone 1.
[8] abbreviates: Compound 1 alone, spray dried, individual batch analyses, cyclone 2.
Setting [9] is: final product, Compound 1 alone, wet polished and spray dried.
Setting [10] is: jet milled crystalline Compound 1 Form A, label = jet mill run.
Setting [11] is: wet polished (wet milled + spray dried) Compound 1 Form A.
Where [12] appears, read: wet milled aqueous suspension of Compound 1 Form A, cycles/pressure: 1A 30/60 bar, 2A 45/50 bar, 3A 30/50 bar.

In brackets after ≈: the same amount, converted by molar mass. Several values for one entry are separate records, joined by “and”; a condition that tells them apart may be missing. Equal entries are not always repeated.

`COc1ccc(-c2cncc(N[C@@H](C)c3cccc(NC(=O)c4cncc(C)c4)c3)n2)cc1OC` [BATCH 01]: in data set [1] (setting [6]), the Dv10 turned out to be 0.2 μm, the Dv50 was 0.5 μm and the Dv90 worked out at 1.7 μm.

In data set [1] (setting [6]), `COc1ccc(-c2cncc(N[C@@H](C)c3cccc(NC(=O)c4cncc(C)c4)c3)n2)cc1OC` [BATCH 02] gave a Dv10 of 0.3 μm, a Dv50 of 0.8 μm and a Dv90 of 3.4 μm.

Turning to `COc1ccc(-c2cncc(N[C@@H](C)c3cccc(NC(=O)c4cncc(C)c4)c3)n2)cc1OC` [Compound 1, N-{3-[(1S)-1-{[6-(3,4-dimethoxyphenyl)pyrazin-2-yl]amino}ethyl]phenyl}-5-methylpyridine-3-carboxamide], in data set [1] (setting [7]), the Dv10 is 0.1 μm and 0.3 μm; the Dv50 is 0.4 μm and 0.5 μm; the Dv90 is 3.1 μm and 1.5 μm; the SPAN is 7.2 and 2.1. Further, in data set [1] (setting [8]), the Dv10 is 0.1 μm and 0.3 μm; the Dv50 was 0.4 μm and 0.5 μm; the Dv90 is 2.9 μm and 1.4 μm; the SPAN is 7.9 and 2.0. In data set [1] (setting [9]), the Dv10 amounted to 0.3 μm, the Dv50 worked out at 0.6 μm, the Dv90 stood at 3.3 μm and the SPAN amounted to 4.7. In data set [1] (setting [10]), this molecule came in with a Dv10 of 0.4 μm, a Dv50 of 1.2 μm, a Dv90 of 2.8 μm and an SPAN of 2.0. Moreover, in data set [2] (setting [9]), the Bulk density is 0.10 g/mL, the “KF (water content)” value is listed as 0.3 % w/w and the XRPD entry is given as “Form A”. Further, the “Amorphous content by DSC” value in data set [3] (setting [9]) is reported as below 10 % w/w. In addition, in data set [3] (setting [10]), the “Amorphous content by DSC” value came to 46 % w/w, the Assay worked out at 97.70 % LC, the Impurities stood at 1.10 % area and the “Water content KF” value is on record as 1.4 % w/w. For the same molecule, the XRPD result in data set [3] (setting [10]) was “P + A”. In addition, in data set [3] (jet milled crystalline Compound 1 Form A, label = jet mill run, in m2/g (unit assumed)), the “Specific Surface Area by BET” value was found to be 10.35.

Regarding `COc1ccc(-c2cncc(N[C@@H](C)c3cccc(NC(=O)c4cncc(C)c4)c3)n2)cc1OC` [Compound 1BIII], in data set [1], the “Dv10 (μm) 1” value is listed as 1.7 μm, the “Dv50 (μm) 1” value came to 3.4 μm, the “Dv90 (μm) 1” value is 6.6 μm and the SPAN1 is recorded as 1.4. Moreover, in data set [1], the “Dv10 (μm) 2” value is on record as 1.4 μm, the “Dv50 (μm) 2” value is recorded as 3.1 μm, the “Dv90 (μm) 2” value was 6.6 μm and the “SPAN 2” value is recorded as 1.7. Further, in data set [2] (setting [11]), the KF is on record as 0.1 % w/w, the Amorphous content is given as below 10 % w/w, the Assay was determined as 99.40 % LC and the Impurities amounted to 1.10 % area. For the same molecule, the XRPD result in data set [2] (setting [11]) was “Crystalline”.

As for `COc1ccc(-c2cncc(N[C@@H](C)c3cccc(NC(=O)c4cncc(C)c4)c3)n2)cc1OC` [Compound 1BII], in data set [1], the “Dv10 (μm) 1” value was determined as 1.7 μm, the “Dv50 (μm) 1” value stood at 3.3 μm, the “Dv90 (μm) 1” value is on record as 6.3 μm and the SPAN1 was 1.4. Also, in data set [1], the “Dv10 (μm) 2” value came out at 1.3 μm, the “Dv50 (μm) 2” value is recorded as 3 μm, the “Dv90 (μm) 2” value came to 6.1 μm and the “SPAN 2” value came to 1.6. Besides, in data set [2] (setting [11]), the KF is 0.2 % w/w, the Amorphous content is on record as below 10 % w/w, the Assay is 102.0 % LC and the Impurities is recorded as 0.9 % area. Also, the XRPD result in data set [2] (setting [11]) is given as “Crystalline”.

For the molecule `COc1ccc(-c2cncc(N[C@@H](C)c3cccc(NC(=O)c4cncc(C)c4)c3)n2)cc1OC` [Compound 1BI], in data set [1], the “Dv10 (μm) 1” value came to 1.8 μm, the “Dv50 (μm) 1” value turned out to be 3.5 μm, the “Dv90 (μm) 1” value is reported as 6.6 μm and the SPAN1 is 1.4. In data set [1], the “Dv10 (μm) 2” value is reported as 1.5 μm, the “Dv50 (μm) 2” value was 3.3 μm, the “Dv90 (μm) 2” value is reported as 6.7 μm and the “SPAN 2” value is 1.6. Also, in data set [2] (setting [11]), the KF was determined as 0.5 % w/w, the Amorphous content was below 10 % w/w, the Assay is 98.9 % LC and the Impurities is recorded as 1.1 % area. For the same molecule, the XRPD entry in data set [2] (setting [11]) is “Crystalline”.

With `COc1ccc(-c2cncc(N[C@@H](C)c3cccc(NC(=O)c4cncc(C)c4)c3)n2)cc1OC` [Compound 3B-2F], in data set [1], the “Dv10 (μm) 2” value is 1.3 μm, the “Dv50 (μm) 2” value was found to be 3.7 μm, the “Dv90 (μm) 2” value is 14.7 μm and the “SPAN 2” value worked out at 3.6.

As for `COc1ccc(-c2cncc(N[C@@H](C)c3cccc(NC(=O)c4cncc(C)c4)c3)n2)cc1OC` [Form B, N-{3-[(1S)-1-{[6-(3,4-dimethoxyphenyl)pyrazin-2-yl]amino}ethyl]phenyl}-5-methylpyridine-3-carboxamide], in data set [4] (ethyl acetate and ethyl acetate+2% water (both systems)), the “solubility compared with the other crystalline form” value was “slightly less soluble”. For the same molecule, in data set [4] (presence of water (2%)), the “solubility in ethyl acetate+2% water compared to pure ethyl acetate” value is listed as “significantly more soluble”.

As to `CC(C)C[C@H](N)C(=O)O` [L-Leucine], in data set [5] (ethanol/water 30:70 (w:w)), the solubility is 7360 µg/mL (≈ 56.1 mM), the solubility at 4 h is 7470 µg/mL (≈ 56.9 mM) and the solubility at 24 h turned out to be 7260 µg/mL (≈ 55.3 mM). Further, in data set [5] (ethanol/water 40:60 (w:w)), the solubility was determined as 5880 µg/mL (≈ 44.8 mM), the solubility at 4 h worked out at 6040 µg/mL (≈ 46 mM) and the solubility at 24 h stood at 5710 µg/mL (≈ 43.5 mM). For the same molecule, in data set [5] (ethanol/water 50:50 (w:w)), the solubility is 5070 µg/mL (≈ 38.7 mM), the solubility at 4 h stood at 4720 µg/mL (≈ 36 mM) and the solubility at 24 h was 5410 µg/mL (≈ 41.2 mM).

For `COc1ccc(-c2cncc(N[C@@H](C)c3cccc(NC(=O)c4cncc(C)c4)c3)n2)cc1OC` [Run 1A], in data set [1] (setting [12]), the Dv10 was determined as 1.7 μm, the Dv50 is 3.2 μm and the Dv90 is reported as 6 μm.

In data set [1] (setting [12]), `COc1ccc(-c2cncc(N[C@@H](C)c3cccc(NC(=O)c4cncc(C)c4)c3)n2)cc1OC` [Run 2A] gave a Dv10 of 1.3 μm, a Dv50 of 2.7 μm and a Dv90 of 4.8 μm.

In data set [1] (setting [12]), `COc1ccc(-c2cncc(N[C@@H](C)c3cccc(NC(=O)c4cncc(C)c4)c3)n2)cc1OC` [Run 3A] returned a Dv10 of 0.1 μm, a Dv50 of 1.0 μm and a Dv90 of 3.5 μm.
